Experimental data published in publication PMC9693575, “Isopropyl Amino Acid Esters Ionic Liquids as Vehicles for Non-Steroidal Anti-Inflammatory Drugs in Potential Topical Drug Delivery Systems with Antimicrobial Activity” (International Journal of Molecular Sciences, 2022).

Legend:
[1] = pKa / pKB by potentiometric acid-base titration and formation constant log(KS); conditions: calculated from pKA of acid and pKB of base
Outline: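 Potentiometric acid-base titration used 0.1 M NaOH as titrant for pKA of acids. For ester hydrochlorides, aqueous HCl was added first, followed by dropwise titration with 5 mM titrant.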

[2] = DTG; cited from earlier work
[3] = test system: Staphylococcus epidermidis; assay: Disc diffusion antimicrobial susceptibility test, Staphylococcus epidermidis; type: cell-based
Experimental: (§1) The plates were incubated for 24 h at 37 °C.

[4] = cited from earlier work
[5] = test system: Micrococcus Luteus; assay: Disc diffusion antimicrobial susceptibility test, Micrococcus luteus; type: cell-based
[6] = test system: Escherichia coli; assay: Disc diffusion antimicrobial susceptibility test, Escherichia coli; type: cell-based; set-up: key to Inhibition diameter: -: no growth of the organism
Experimental: as §1

[7] = solution transferred to disc 25 mg cm^−3
[8] = solution transferred to disc 50 mg cm^−3
[9] = solution transferred to disc 100 mg cm^−3
[10] = solution transferred to disc 200 mg cm^−3
[11] = solution transferred to disc 400 mg cm^−3
[12] = solution transferred to disc 600 mg cm^−3
[13] = solution transferred to disc 800 mg cm^−3
[14] = solution transferred to disc 1000 mg cm^−3

CC(C)Cc1ccc(C(C)C(=O)O)cc1.CC(C)OC(=O)C(N)C(C)C (mixture of isomers) [[L-ValOiPr][IBU]]
Log(KS) formation constant [1]: 5.56
TDTGmax, maximum decomposition temperature [2]: 215.5 [50] °C
Inhibition diameter [3, 7]: 7.3 ± 0.2 mm
Inhibition diameter [3, 8]: 10.4 ± 0.1 mm
Inhibition diameter [3, 9]: 12.8 ± 0.2 mm
Inhibition diameter [3, 10]: 13.2 ± 0.2 mm
Inhibition diameter [3, 11]: 16.3 ± 0.3 mm
Inhibition diameter [3, 12]: 17.7 ± 0.3 mm
Inhibition diameter [3, 13]: 18.4 ± 0.2 mm
Inhibition diameter [3, 14]: 18.9 ± 0.3 mm
Solubility in Phosphate Buffer pH = 5.4 ([4]; pH 5.4): 2.351 ± 0.027 [45] g dm^−3
Solubility in Phosphate Buffer pH = 5.4, as active substance ([4]; pH 5.4): 1.326 ± 0.027 [45] gAS dm^−3
Solubility in Phosphate Buffer pH = 7.4 ([4]; pH 7.4): 4.998 ± 0.018 [45] g dm^−3
Solubility in Phosphate Buffer pH = 7.4, as active substance ([4]; pH 7.4): 2.821 ± 0.018 [45] gAS dm^−3
Inhibition diameter [5, 7]: 8.4 ± 0.3 mm
Inhibition diameter [5, 8]: 9.1 ± 0.2 mm
Inhibition diameter [5, 9]: 9.6 ± 0.1 mm
Inhibition diameter [5, 10]: 10.5 ± 0.2 mm
Inhibition diameter [5, 11]: 11.2 ± 0.2 mm
Inhibition diameter [5, 12]: 11.7 ± 0.2 mm
Inhibition diameter [5, 13]: 12.6 ± 0.3 mm
Inhibition diameter [5, 14]: 13.2 ± 0.2 mm
Inhibition diameter [6, 7]: -
Inhibition diameter [6, 8]: -
Inhibition diameter [6, 9]: -
Inhibition diameter [6, 10]: 6.2 ± 0.1 mm
Inhibition diameter [6, 11]: 6.3 ± 0.2 mm
Inhibition diameter [6, 12]: 6.8 ± 0.5 mm
Inhibition diameter [6, 14]: 7.1 ± 0.3 mm
